Laboratory results reported in PubChem BioAssay (NCI).
Where “and” joins values, the source holds several entries; their conditions need not be identical. Equal entries are not always repeated.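 The compound was tested at five concentrations on cells cultured in 96-well plates, with a 48-hour exposure period. GI50 = concentration required for 50% inhibition of growth. TGI: total growth inhibition.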

Legend:
Experiment in all cases: NCI tumour cell line growth inhibition, 48 h
A498 renal = test system: A498 renal
COLO 205 colon = test system: COLO 205 colon
LOX IMVI melanoma = test system: LOX IMVI melanoma
NCI-H460 lung = test system: NCI-H460 lung
OVCAR-3 ovarian = test system: OVCAR-3 ovarian
PC-3 prostate = test system: PC-3 prostate
SF-268 CNS = test system: SF-268 CNS
SF-295 CNS = test system: SF-295 CNS
SR leukemia = test system: SR leukemia
UACC-62 melanoma = test system: UACC-62 melanoma

SMILES	GI50 (A498 renal)	TGI (A498 renal)	GI50 (COLO 205 colon)	TGI (COLO 205 colon)	GI50 (LOX IMVI melanoma)	TGI (LOX IMVI melanoma)	GI50 (NCI-H460 lung)	TGI (NCI-H460 lung)	GI50 (OVCAR-3 ovarian)	TGI (OVCAR-3 ovarian)	GI50 (PC-3 prostate)	TGI (PC-3 prostate)	GI50 (SF-268 CNS)	TGI (SF-268 CNS)	GI50 (SF-295 CNS)	TGI (SF-295 CNS)	GI50 (SR leukemia)	TGI (SR leukemia)	GI50 (UACC-62 melanoma)	TGI (UACC-62 melanoma)
Cc1cc(I)cc(CN(C)CCCCN2CCCCC2)c1O	11.4 µM	25.4 µM	9.87 µM	24.9 µM	11.5 µM	24 µM	13.2 µM	26.7 µM	20 µM	53.4 µM	15 µM	32 µM	12.5 µM	27.3 µM	3.05 µM	7.62 µM	4.6 µM	17.9 µM	2.62 µM	6.98 µM
Cc1ccc(C(=O)/C(=C/c2ccc([N+](=O)[O-])cc2)SCc2ccc(Cl)cc2)cc1	24 µM	> 100 µM	3.33 µM	20.7 µM	0.445 µM	1.65 µM	2.58 µM	12 µM	1.72 µM	3.54 µM	1.12 µM	3.49 µM	2.44 µM	15.8 µM	1.55 µM	3.4 µM	0.325 µM	> 100 µM	1.34 µM	3.41 µM
O=C(Nc1ccc(Cl)c(Cl)c1)Nc1ccc(Cl)c(Cl)c1		2.79 µM and 5.18 µM	1.77 µM and 2.07 µM	3.3 µM and 3.69 µM	2.26 µM and 2.95 µM	4.94 µM and 10.3 µM	2.85 µM and 2.24 µM	10.6 µM and 8.59 µM	3.03 µM and 1.66 µM	10.9 µM and 5.9 µM	2.82 µM and 1.78 µM	12.3 µM and 9.82 µM	3.92 µM and 3.88 µM	15.1 µM and 14.5 µM	2.3 µM and 1.84 µM	6.93 µM and 5.39 µM	2.7 µM and 2.26 µM	10.9 µM and 6.66 µM	2.88 µM and 2.38 µM	13.4 µM and 10.4 µM
CSc1nc2c(c(=O)[nH]1)N=C1c3ccccc3C(=O)C1C(c1ccccc1)N2 (configuration not stated)	2 µM	38 µM	3.53 µM	> 100 µM	5.65 µM	> 100 µM	3.16 µM	38.1 µM	2.12 µM	5.67 µM	3.64 µM	> 100 µM	4.55 µM	> 100 µM	1.91 µM	> 100 µM	1.51 µM	> 100 µM	2.14 µM	> 100 µM
CCOC(=O)[C@]1(OC(C)=O)C[C@H](OC(C)=O)[C@@H](C(F)COP(=O)(OCc2ccccc2)OCc2ccccc2)O1 (some centres not stated)	24.7 µM and > 100 µM	52.8 µM and > 100 µM	19.4 µM and > 100 µM	36.3 µM and > 100 µM	29.4 µM and > 100 µM	> 100 µM	18.4 µM and > 100 µM	39.9 µM and > 100 µM	29.6 µM and > 100 µM	79.4 µM and > 100 µM		88 µM and > 100 µM		> 100 µM	47.9 µM and > 100 µM	> 100 µM	30.2 µM and > 100 µM	> 100 µM	16.9 µM and > 100 µM	33.8 µM and > 100 µM
c1ccc2cc(-c3cc(-c4cc(-c5ccc6ccccc6c5)on4)no3)ccc2c1		> 100 µM		> 100 µM		> 100 µM		> 100 µM		> 100 µM		> 100 µM		> 100 µM		> 100 µM		> 100 µM		> 100 µM
COc1cc(-c2nn(-c3ccc(NC(=O)c4ccc(Cl)c(C(F)(F)F)c4)cc3)cc2-c2ccncc2)ccc1Cl	2.4 µM	17.9 µM	2.05 µM	4.37 µM	1.55 µM	3.88 µM	3.43 µM	> 100 µM	2.98 µM	> 30.9 µM	3.04 µM	> 100 µM	4.03 µM	> 100 µM	0.255 µM	0.948 µM	3.2 µM	> 37.8 µM	2.2 µM	5.44 µM
COc1ccc2c(C3=C(c4cn(C)c5ccccc45)C(=O)NC3=O)cn(C)c2c1	0.054 µM	0.215 µM	0.0917 µM	0.323 µM	0.154 µM	> 25 µM	0.0982 µM	> 25 µM	0.0841 µM	1.03 µM	0.0936 µM	> 25 µM	0.292 µM	> 25 µM	0.0649 µM		0.0717 µM	> 25 µM	0.137 µM	> 25 µM
NC(=O)c1sc(-n2cnc3ccccc32)cc1OCc1ccccc1Br	4.11 µM	14.4 µM	1.58 µM	23.2 µM	1.98 µM	> 25 µM	2.36 µM	> 25 µM	1.55 µM	17.6 µM	10.3 µM	> 25 µM	4.98 µM	> 25 µM	3.9 µM	> 25 µM	3.09 µM	> 25 µM	5.88 µM	> 25 µM
O=C(CC1(O)C(=O)Nc2c(Cl)cc(Cl)cc21)c1ccc(Br)cc1Br (configuration not stated)		40 µM		16.9 µM		15 µM		28.9 µM		43.8 µM		31.4 µM		24 µM		34.9 µM		> 22 µM		25.6 µM
COC(=O)[C@@H]1[C@H](O)[C@H](C)[C@H](O)[C@@](C)(O)/C=C\C=C(C)C(=O)Nc2c(C)c(OC(C)=O)c3c(c2O)C(=O)C(C)=C2OCOC(=C23)C(C)=C[C@@](C)(O)[C@H](O)[C@@H](C)[C@H]1OC(C)=O		> 100 µM		> 100 µM and 29 µM and 37.3 µM		> 100 µM and 66.9 µM and 41.7 µM	> 66.9 µM	> 100 µM	56.5 µM	87.6 µM and 66.9 µM and > 100 µM		> 66.9 µM	> 66.9 µM	> 100 µM	> 66.9 µM	> 100 µM	58 µM and 24.3 µM and 28.4 µM	> 100 µM and 63.8 µM and 89 µM	25.1 µM	> 100 µM and 66.9 µM and 54.5 µM
COC1=CC(c2ccc[nH]2)=N/C1=C\c1[nH]c(C)c(C(=O)OC(C)C)c1C	0.255 µM	1.92 µM	0.0733 µM	1.46 µM	0.0163 µM	0.0372 µM	0.0269 µM	1.63 µM	0.05 µM	0.586 µM	0.0633 µM	4.7 µM	0.0608 µM	5.25 µM	0.0264 µM	0.123 µM	0.0257 µM	0.291 µM	0.025 µM	0.0578 µM
Cc1nc2ccccc2c(N)c1-c1cc(C)c2c(C)nc3ccccc3c2n1	1.73 µM	4.11 µM	0.817 µM	2.25 µM	0.248 µM	0.717 µM	0.329 µM	1.17 µM	0.69 µM	1.83 µM	1.02 µM	3.1 µM	0.628 µM	2.08 µM	1.34 µM	2.74 µM	0.19 µM	2.59 µM	1.29 µM	2.61 µM
COC1CCC(N2C(=O)CNc3ncc(-c4ccc(C(C)(C)O)nc4)nc32)CC1 (configuration not stated)	0.0614 µM and 0.0422 µM	0.769 µM and 0.378 µM	1.03 µM and 0.176 µM	> 8.63 µM and 9.06 µM	1.35 µM and 0.329 µM	> 34.2 µM	0.455 µM and 0.113 µM	> 46 µM	0.904 µM and 0.248 µM	> 33 µM	0.322 µM and 0.108 µM	4.2 µM and > 33.5 µM	1.97 µM and 0.356 µM	> 41.5 µM	0.511 µM and 0.157 µM	4.75 µM and 3.09 µM	1.06 µM and 0.331 µM	> 47.2 µM	0.237 µM and 0.111 µM	2.08 µM and 1.26 µM
NC(=O)c1cccc2cn(-c3ccc([C@@H]4CCCNC4)cc3)nc12	19.2 µM	40.8 µM	13.5 µM	28.6 µM	8.16 µM	22.2 µM	4 µM	18.7 µM	14.8 µM	31.6 µM	16.1 µM	> 100 µM	9.13 µM	28.5 µM	4.65 µM	18.1 µM	1.94 µM	12.5 µM	13.6 µM	27 µM
Cc1ccc(NC2=C(Cl)C(=O)N(Cc3ccccc3)C2=O)cc1O	7.18 µM	33.1 µM	49 µM	> 100 µM	18 µM	63.4 µM	34 µM	> 100 µM	20.6 µM	70 µM	32.5 µM	> 100 µM	31.7 µM	> 100 µM	22 µM	81.8 µM	6.91 µM	> 100 µM	24.4 µM	> 100 µM
